In a melting point compilation (Tetko et al.; mined from patent text by program, amines drawn as free bases though some values may be those of a salt):

Compared with `CC#CCOc1ccc(SC(C(=O)NO)c2cccc(Cl)c2)cc1` (stereo not drawn), `COC(=O)COc1ccc(-c2c(Br)ccc3sc4ccccc4c23)cc1` is lower in melting point: 127 °C for the first, 122 °C for the second.

Going from `Cc1cc(C(=N)N)ccc1N1CCN(c2ccc(CCC(=O)O)cc2)C1=O` to `COC(=O)c1ccc(OCC2CC(=O)N(c3ccc(OCC(C)C)cc3)C2)cc1` (stereo not drawn), the melting point falls from greater than 270 °C to 118 °C.

First: CON=C(C(C)=NN=Cc1ccccc1C(=NOC)C(=O)OC)c1ccc(Cl)cc1
Second: COC(=O)CC(=O)c1ccc(-c2ccccc2)cc1
The melting point of the first is higher: 104 to 105 °C for the first, 82 °C for the second.

First: CCON1C(C)(C)CC(O)CC1(C)C
Second: CCOC(=O)Cn1cc(C(=O)Nc2ccc(OCC(C)(C)C)c(C#N)c2)c(C)n1
The melting point of the first is lower: 86 to 88 °C for the first, 240 °C for the second.

Compared with `COc1ccc([N+](=O)[O-])cc1CC#N`, `CC(=O)O[C@H](CCc1ccc([N+](=O)[O-])cc1)C(=O)O` is higher in melting point: 100 °C for the first, 108 to 109 °C for the second.

Compared with `Fc1ccccc1C(Cl)(c1ccccc1)c1ccccc1`, `ClCCCn1c(Cc2ccccc2)nc2ccccc21` is lower in melting point: 134 to 135 °C for the first, 112 °C for the second.

Compared with `COC(=O)c1cc(C#CC2(c3ccc(OC)c(OC4CCCC4)c3)CCC(=O)CC2)cc(C(=O)OC)c1`, `COC(=O)c1ccc(-c2ccc3c(c2)CCN(C2CCN(C4CCC4)C2)C3=O)c(F)c1` (stereo not drawn) is lower in melting point: 134 to 135 °C for the first, 75 °C for the second.

Compared with `Cc1ccc(S(=O)(=O)Nc2cccc(CCC(=O)c3cnc4sc(C)c(C)n34)c2)cc1`, `C=Cc1cccc2c(Nc3ccc(O)cc3C)c(C(=O)CCC)cnc12` is lower in melting point: 180 to 181 °C for the first, 150 to 152 °C for the second.

First: CS(=O)(=O)OCCCCc1ccc(OCc2coc(/C=C/c3ccccc3)n2)cc1
Second: CC(COc1ccc(O)c(C(N)=O)c1)N(Cc1ccccc1)CC(O)COc1ccc(OCc2ccccc2)cc1 (stereo not drawn)
The melting point of the first is lower: 82 to 83 °C for the first, 149 to 160 °C for the second.

Compared with `COC(=O)c1ccc(OC(=O)CCCCCCCCC(=O)Oc2ccc(C(=O)OC)cc2)cc1`, `COc1ccc(-c2cc(-c3ccoc3)c(C(=O)NCc3ccc(C(=O)NO)cc3)[nH]2)cc1` is higher in melting point: 110 °C for the first, 189 to 190 °C for the second.

First: COc1nc(C)nc(NC(=O)NS(=O)(=O)c2ccccc2C(=O)OCCCl)n1
Second: COc1nc(C)cnc1N(C(=O)OCC(C)C)S(=O)(=O)c1cccnc1-c1ccc(C=O)cc1
The melting point of the first is higher: 167 to 170 °C for the first, 154 to 156 °C for the second.

First: CC1(c2ccc(Oc3nc4ccc(Cl)cc4s3)cc2)OC(=O)N(Nc2ccccc2)C1=O (stereo not drawn)
Second: CC(=C1SC(=O)NC1=O)c1ccc(OCCOc2c(-c3ccc(F)cc3)n(C)c3ccc(F)cc3c2=O)cc1
The melting point of the first is lower: 207 to 209 °C for the first, 245 to 248 °C for the second.

First: CN(C)C(=O)OCc1nc([N+](=O)[O-])c(C#N)n1C
Second: Cc1cccc([N+](=O)[O-])c1CNc1cccn2c(Cl)c(C)nc12
The melting point of the first is lower: 85 to 88 °C for the first, 142 to 144 °C for the second.

Compared with `Cc1ccc(C(C=NO)=NO)cc1`, `Cc1ccccc1-c1cc(O)ccc1O` is lower in melting point: 170 to 176 °C for the first, 65 to 68 °C for the second.

Compared with `CCNCC(=O)Nc1ccc2c(c1)C(=O)c1cc(NC(=O)CNCC)ccc1C2=O`, `CC(=O)OCCCn1cc(C2=C(c3ccccc3[N+](=O)[O-])C(=O)NC2=O)c2ccccc21` is lower in melting point: 145 °C for the first, 77 to 78 °C for the second.

First: O=C(NCCN1CCOCC1)Oc1cccc(C2CCCN2Cc2ccccc2)c1 (stereo not drawn)
Second: O=C(NC1CCN(CCCC2=CCc3ccccc32)CC1)c1ccccc1
The melting point of the first is lower: 74 to 77 °C for the first, 157 to 159 °C for the second.

Compared with `COc1cc(NC(=O)c2cc(C(C)C)c(C(C)C)o2)ccc1C(=O)O`, `COc1cc(OC)c(C(=O)CC(O)C(=O)O)cc1OC` (stereo not drawn) is higher in melting point: 136 to 137 °C for the first, 145 to 147 °C for the second.

First: NCc1noc(-c2nn(Cc3ccccc3)c3ccccc23)n1
Second: CCOC(=O)Cc1c2ccccc2n2c(-c3ccccc3)nccc12
The melting point of the first is higher: 118 to 119 °C for the first, 59 to 62 °C for the second.

Compared with `O=C1CCn2nc(-c3ccc(F)cc3)c(-c3ccncc3)c2N1`, `CC(O)(CCBr)c1ccc(-c2ccc(F)cc2)cc1` (stereo not drawn) is lower in melting point: greater than 250 °C for the first, 72 to 74 °C for the second.

First: NC(=O)c1nc(-c2ccc(O)cc2)cs1
Second: NC(=O)c1sc2cnccc2c1Oc1ccc(C(=O)N2CCOCC2)cc1
The melting point of the first is lower: 223 to 227 °C for the first, greater than 260 °C for the second.

First: CONCc1nc2c(N)nc(C)c(C)c2n1CC(C)C
Second: CCCc1nc2c(N)nc(C)c(C)c2n1CCCCN(O)C(=O)c1ccccc1
The melting point of the first is higher: 154 to 156 °C for the first, 132 to 134 °C for the second.

Compared with `O=C1NC2(CCCC2)CCCC1Cl` (stereo not drawn), `CN(C)c1ccc(C2(C#N)CCCC2)cc1` is lower in melting point: 109 to 111 °C for the first, 73 to 74 °C for the second.

Compared with `COC(=O)CCC(=O)N[C@@H](CO)c1ccccc1`, `CCOC(=O)CC(=O)C=Cc1ccccc1[N+](=O)[O-]` is higher in melting point: 59 to 61 °C for the first, 72 °C for the second.

First: CCCn1cc(CN(C(=O)C2CCCc3c(O)cccc32)c2ccc(C(C)C)cc2)cn1 (stereo not drawn)
Second: O=C(CCN1CCC(C(O)c2ccc3ccccc3c2)CC1)Cc1ccc(F)cc1 (stereo not drawn)
The melting point of the first is higher: 161 °C for the first, 100 to 102 °C for the second.

Compared with `CN(C)c1c(F)c(F)c(F)c(F)c1C(=O)O`, `O=CNn1cc(C(=O)O)c(=O)c2cc3c(cc21)OCO3` is higher in melting point: 90 to 100 °C for the first, 302 °C for the second.

First: CC(C)(C)OC(=O)N[C@@H](Cc1ccc(NC(=O)c2csc(NC(=O)NCc3ccccc3)n2)cc1)C(=O)O
Second: O=C(NCc1ccncc1)c1cc2ccnc(NCc3ccccc3)c2[nH]1
The melting point of the first is higher: 231 °C for the first, 199 to 200 °C for the second.

First: N#Cc1cccc2c(O)c(C(=O)NCc3ccc(Cl)cc3)cnc12
Second: N#Cc1cc(C(=O)NNC(=O)c2occc2-c2ccccc2)ccc1O
The melting point of the first is higher: 287 to 289 °C for the first, 216 to 217 °C for the second.

First: CC(=O)N1CCc2c([nH]c3ccccc23)C1CCCCl (stereo not drawn)
Second: CN(C)C1(c2ccccc2)CCC(c2[nH]c3ccccc3c2C2CC2)CC1 (stereo not drawn)
The melting point of the first is lower: 166 to 168 °C for the first, 238 to 245 °C for the second.

First: COc1cc2nc(N3CCN(C(=O)C=Cc4ccccn4)CC3)nc(N)c2cc1OC
Second: Cc1ccc2nc(-c3ccccc3)cc(OCC(=O)N3CCOCC3)c2c1
The melting point of the first is higher: 235 to 237 °C for the first, 158 °C for the second.

First: CN1C(=O)N2[C@H](c3cccc(O)c3)c3[nH]c4ccc(Br)cc4c3C[C@@]2(C)C1=O (racemic)
Second: O=C1N(Cc2ccc(Cl)s2)c2c(C(F)(F)F)cccc2C12COc1cc3c(cc12)OCO3 (stereo not drawn)
The melting point of the first is higher: 248 to 251 °C for the first, 165 to 166 °C for the second.

First: CCOCCn1c(N(Cc2ccccc2)C2CCN(C(=O)OCC)CC2)nc2cccnc21
Second: c1ccc(N2CCN(CCc3ccc4ccccc4n3)CC2)cc1
The melting point of the first is higher: 115 °C for the first, 79 °C for the second.

First: CCOC(=O)c1cc2cc(Oc3ccc(S(C)(=O)=O)nc3)cc(CC)c2[nH]1
Second: CCOC(=O)C(=[N+]=[N-])C(=O)c1cc(OC)ccc1C1CCc2cc(OC)ccc21 (stereo not drawn)
The melting point of the first is higher: 140 to 141 °C for the first, 97 to 99 °C for the second.

First: Cc1[nH]cnc1CN1CCc2c(c3cccc4c3n2CCCC4)C1=O
Second: CCc1nc(C2CCCC2)n2nc(-c3ccc(OC)c(S(=O)(=O)N4CCOCC4)c3)[nH]c(=O)c12
The melting point of the first is higher: 215 to 216 °C for the first, 204 °C for the second.

First: c1ccc(-c2ncc3[nH]c4c(c3n2)CCCC4)cc1
Second: C[C@H](Nc1ncnc2[nH]cnc12)c1oc2ccccc2c(=O)c1-c1ccccc1
The melting point of the first is higher: 197 to 198 °C for the first, 135 to 138 °C for the second.

Compared with `CCCS(=O)(=O)Nc1ccc(C(=O)CC#N)cc1`, `CC(C)(C)c1ccc(CN2CCN(Cc3ccc(NS(C)(=O)=O)cc3)C2=O)cc1` is higher in melting point: 150 to 151 °C for the first, 166 to 168 °C for the second.

Compared with `CNc1nc(Nc2ccc(Cl)c(Cl)c2)ncc1N1CCNC1=O`, `CCNc1nc(NCc2ccco2)nc(Nc2ccc3nc(C)sc3c2)n1` is lower in melting point: 271 °C for the first, 97 to 99 °C for the second.

Compared with `CC(C)(C)c1cc(OCc2ccc(C#N)cc2)cc(C(C)(C)C)c1`, `CCN(CC)CCOc1ccc(C(O)(CC)c2cccc(C(F)(F)F)c2)cc1` (stereo not drawn) is lower in melting point: 118 to 121 °C for the first, 74 to 75 °C for the second.

First: Cc1cc(C)c2c(c1O)C(NCc1ccccc1)=C(c1ccccc1)C2
Second: COc1ccccc1Sc1c(O)cc(-c2ccccc2)oc1=O
The melting point of the first is higher: 214 to 215 °C for the first, 208 to 209 °C for the second.

First: CCOC(=O)CC[C@H](NC(=O)CCc1cc(Cl)ccc1C(=O)CCCNC(C)=O)C(=O)OCC
Second: CC(C)(C)OC(=O)CN1C(=O)[C@@H](N[C@@H](CCCCNC(=O)OC(C)(C)C)C(=O)O)CSc2ccccc21
The melting point of the first is lower: 109 to 111 °C for the first, 134 to 135 °C for the second.

First: CC(CC(F)(F)C(F)(F)C(F)(F)C(F)(F)C(F)(F)C(F)(F)CC(C)C(=O)O)C(=O)O (stereo not drawn)
Second: CSC[C@H](C)NC(=O)c1c(Cl)cccc1C(=O)Nc1ccc(Cn2nc(C(F)(F)F)cc2C(F)(F)F)nc1C
The melting point of the first is higher: 150 to 151 °C for the first, 92 °C for the second.

First: O=C1NCc2c1cccc2-c1cccc2cc(Cc3cccc(C(F)(F)F)c3)sc12
Second: O=C(Nc1ccc(C=C2c3ccccc3CCc3ccccc32)cc1)c1ccncc1
The melting point of the first is lower: 195 to 196 °C for the first, 252 °C for the second.

First: CCOc1cc(Oc2ncc(Cl)cn2)ccc1[N+](=O)[O-]
Second: CCOC(=O)c1cn(-c2nccs2)c2nc(Cl)cc(C(F)(F)F)c2c1=O
The melting point of the first is lower: 114 to 115 °C for the first, 184 to 185 °C for the second.

First: COCCc1nc2c(N)nc3ccccc3c2n1CCCCNC(=O)c1ccc(-n2cccc2)nc1
Second: CCc1nc2cc(Cl)c(F)cc2c(=O)n1CCc1ccccc1
The melting point of the first is lower: 77 to 80 °C for the first, 150 to 152 °C for the second.

First: CC(C)n1cc(-c2nc(C(N)=O)c(N)nc2-c2cccc(OC(F)(F)F)c2)ccc1=O
Second: Cn1nc2c(-c3ccc(Cl)cc3Cl)cccc2c1-n1cnnc1
The melting point of the first is higher: 266 °C for the first, 118 to 121 °C for the second.

First: Cn1ncc2[nH]c3c(F)cccc3c(=O)c21
Second: CCCN1C(=O)N2CCN=C2c2[nH]cnc21
The melting point of the first is higher: greater than 300 °C for the first, 283 to 285 °C for the second.

First: O=C(Nc1ccc(CCN2C(=O)C3CCCC3=Nc3ccccc32)cc1)OCc1ccccc1 (stereo not drawn)
Second: NC(=O)N(O)CCNC(=O)c1ccc(Oc2ccccc2)o1
The melting point of the first is lower: 103 to 105 °C for the first, 160 to 163 °C for the second.

Compared with `O=C(O)c1cc(CO[N+](=O)[O-])cc(CO[N+](=O)[O-])c1`, `CCOC(=O)C1=Cc2cc(Cl)cc(C#CCCCCl)c2OC1C(F)(F)F` (stereo not drawn) is higher in melting point: 39 to 41 °C for the first, 84.8 to 85.9 °C for the second.

First: CC(=O)c1c[nH]c(C)n1
Second: CC(C)c1[nH]cnc1CO
The melting point of the first is higher: 124 to 127 °C for the first, 121 to 123 °C for the second.

First: O=c1c2cc3ccccc3cc2oc2cc(OCC3CO3)cc(OCC3CO3)c12 (stereo not drawn)
Second: Cn1cc2c(OCC3COC(Cn4ccnc4)(c4ccc(Cl)cc4Cl)O3)cc(-c3ccccc3)nc2n1 (stereo not drawn)
The melting point of the first is lower: 181 to 182 °C for the first, 227 to 229 °C for the second.
